A short description of the assay: Calcium Flux Assay: An in vitro assay was used to determine the potency of test compounds as inhibitors of the glutamate response of the channel formed by GluA1o-γ8. To ensure a 1:1 stoichiometry of GluA1o and γ8 subunits in the expressed channel, a fusion of the cDNAs for GRIA1o and CACNG8 was used. Following Shi et al (2009) The stoichiometry of AMPA receptors and TARPs varies by neuronal cell type. Neuron 62(5): 633-640), the C-terminus of the cDNA for GRIA1o was fused to the N-terminus of the cDNA for γ8. The linker sequence was QQQQQQQQQQEFAT. Channels expressed with this construct appear to have similar properties to channels formed by co-expression of GRIA1o with an excess of CACNG8 (Shi et al. 2009). A clonal cell line in HEK293 cells stably expressing this construct, with a geneticin selection marker, was generated for use in this assay.Cell expressing the GRIA1o-CACNG8 fusion construct were grown in a monolayer in 96- or 384-well microtiter plates. They were washed with assay buffer (135 mM NaCl, 4 mM KCl, 3 mM CaCl2, 1 mM MgCl2, 5 mM glucose, 10 mM HEPES, pH 7.4, 300 mOs) using a Biotek EL405 plate washer. The cells were then loaded with a calcium-sensitive dye (Calcium-5 or Calcium-6, Molecular Devices) and the test compounds at a range of concentrations. […]. The format is cell-based. A general note: A change in cytosolic calcium serves as a functional read-out for many receptors and channels.

Molecules are shown by their SMILES.

In the case of `Cc1cc(-c2c(C(F)(F)F)ccn3cc(C(C)C)nc23)cc2cn[nH]c12`, the 50% inhibitory concentration (IC50) (in general, the midpoint of a concentration-inhibition curve) amounted to 0.1 nM.
